{"source": "paper PMC11100015", "about": "“Bioluminescence Imaging of Potassium Ion Using a Sensory Luciferin and an Engineered Luciferase” (Journal of the American Chemical Society, 2024)", "biological_target": "T1, BREP (Oplophorus gracilirostris, UniProt Q9GV45, A31E/Q38R/Q45L/D46S/L54V/A60N/K70R/V71I/A81I/F95D/L99Q/M102K/D112N/I117V/P142E/Q151K/Y165I/C191H/N193R)", "T1 construct": "fusion of mScarlet-I and teLuc (NanoLuc variant) via three-residue linker; recombinant, pBAD/His B, purified; with mScarlet-I red fluorescent protein (engineered RFP, RET acceptor)", "T1 sequence (Q9GV45 28-196 with the stated changes)": "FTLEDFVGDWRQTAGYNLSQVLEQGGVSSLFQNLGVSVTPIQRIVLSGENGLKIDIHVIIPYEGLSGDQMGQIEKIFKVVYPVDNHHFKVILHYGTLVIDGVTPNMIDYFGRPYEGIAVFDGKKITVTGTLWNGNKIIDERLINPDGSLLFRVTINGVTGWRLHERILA", "test": "bioluminescence emission spectra", "assay_type": "biochemical", "conditions": "MOPS pH 7.4; 25 uM potassiorin, 100 nM enzyme", "data": [{"smiles": "O=c1c(Cc2ccc(OCCn3cc(-c4ccc(N5CCOCCOCCOCCOCCOCC5)cc4)nn3)cc2)nc2c(-c3ccccc3)[nH]c(-c3ccccc3)cn1-2", "note": "[compound 13, potassiorin]", "values": [{"measurement": "bioluminescence emission spectra", "result": "We measured the emission spectra of BREP and potassiorin in the absence and presence"}]}]}
